The numbers were not newly measured in article PMC7456637, “Pharmacokinetic characterization of fluorocoxib D, a cyclooxygenase-2-targeted optical imaging agent for detection of cancer” (Journal of Biomedical Optics, 2020), which cites them from elsewhere.

The conditions of data set [1]: administrated orally; cited from earlier work.
For a further data set, the system named is RAW264.7 macrophages. Also noted: method as in PMID 20430759. The following applies: cited from earlier work.
The subject of a further data set is COX2. The conditions noted are these: cited from earlier work.
Another data set deals with COX1. The following applies: cited from earlier work.
For data set [2] the following is noted: dog, in vivo, po, 2 mg/kg; cited from earlier work.

`COc1ccc2c(c1)c(CC(=O)O)c(C)n2C(=O)c1ccc(Cl)cc1` [Indomethacin, reference compound]: in data set [1], the Bioavailability is reported as 100%. Further, the IC50 was 10 nM in the data set on RAW264.7 macrophages, […] with COX2 and […] with COX1.

Take `CCc1ccc(Nc2c(F)c(F)cc(F)c2F)c(CC(=O)O)c1` [robenacoxib]: the “Elimination t1/2” value in data set [2] was 1.1 h.

Broadly, the IC50 is the concentration at which inhibition is half-maximal.
